Entries after “also recorded” stand apart in the source; their conditions may differ. Read-outs that look alike come from different tables or passages of the source.
Experiments:
human TNAP = biological target: T1, human TNAP (Homo sapiens, UniProt P05186); experiment: Enzyme kinetic experiments, Ki and mechanism of TNAP inhibition; type: biochemical
T1 construct: made in house; host or cells: COS-1 cells, transient expression; dialyzed serum-free conditioned medium
T1 sequence (P05186 18-502 limits assumed): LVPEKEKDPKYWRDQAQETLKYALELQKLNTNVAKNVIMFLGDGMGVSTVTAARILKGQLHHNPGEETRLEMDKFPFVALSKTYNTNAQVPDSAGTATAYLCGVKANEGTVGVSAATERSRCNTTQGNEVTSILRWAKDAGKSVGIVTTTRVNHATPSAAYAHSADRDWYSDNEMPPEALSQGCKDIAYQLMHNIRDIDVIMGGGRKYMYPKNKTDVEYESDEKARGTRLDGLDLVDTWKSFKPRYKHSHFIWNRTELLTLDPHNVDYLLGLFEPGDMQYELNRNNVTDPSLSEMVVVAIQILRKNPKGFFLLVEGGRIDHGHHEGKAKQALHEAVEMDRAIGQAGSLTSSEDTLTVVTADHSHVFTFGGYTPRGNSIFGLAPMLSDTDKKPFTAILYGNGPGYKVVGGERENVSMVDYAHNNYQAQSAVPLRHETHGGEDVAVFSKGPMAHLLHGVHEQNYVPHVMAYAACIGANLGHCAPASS
Procedure: Expression plasmids containing a secreted epitope-tagged TNAP, PLAP and IAP were transfected into COS-1 cells for transient expression using a standard electroporation method. Medium was replaced to Opti-MEM 24 hours later, and the serum free media containing secreted proteins were collected 60 hours after electroporation. Conditioned medium was dialyzed against TBS containing 1 mM MgCl2 ad 20 μM ZnCl2 (to remove phosphate) and filtrated with a 2 μm cellulose acetate filter.
[…] TNAP, PLAP and IAP activities were adjusted to an approximate ΔA405 nm, equivalent to 1, measured after 30 min. Residual AP activity in the presence of inhibitors was expressed as percentage of the control activity. To investigate the mechanism of inhibition, double reciprocal plots of enzyme activity (expressed as mA405 nm min^−1) vs. substrate concentration were constructed, in the presence of various concentrations of added inhibitors (0-30 μM). The y-axis intercepts of the 1/v vs. 1/[S] plots, were then plotted vs. [I] to graphically extract Ki values as the x-intercept in this plot. […] Inhibitors were further tested and sorted based on their kinetic properties at pH 7.4 using PPi, the relevant natural substrate of TNAP. […] Amounts of released phosphate were measured using the Biomol Green Reagent (Biomol Research Laboratories, Inc., Plymouth Meeting, Pa.).

[1] = tested on: endogenous pyrophosphatase activity in aortic rat rings; experiment: PPi hydrolysis by whole aortas ex vivo; conditions: 30 μM; for PPi hydrolysis / % Inhibition: aortic rat rings ex vivo; for % Inhibition: inhibition of PPi hydrolysis
Procedure: Rats were sacrificed and aortas perfused with Hanks salt solution to remove blood. The aortas were then removed and, after the adventitia was dissected away, were cut into rings approximately 2 mm in length. Four rings were placed in 1 ml of DMEM without serum containing the compounds to be tested. After 90 min at 37° C., sodium PPi (final concentration 1 μM) and [^32P]Pi (final concentration 1 μCurie/ml) were added and 6 samples were removed over 4 hours. Pi was separated from PPi by adding 800 μl of 0.028 M ammonium molybdate in 0.75 M H2SO4 to the samples and extracting with 1600 μl of isobutanol and petroleum ether (4:1). ^32P was counted in the organic phase by Cerenkov radiation. Hydrolysis of PPi was linear over 4 hours and the rate was determined by linear regression.
Furthermore, to measure the degree of pyrophosphatase inhibition by the new TNAP inhibitors, an ex vivo organ culture system in whole aortas was used. For this analysis, rat rather than mouse aortas were selected, as they are larger and easier to dissect.

Enpp1−/− VSMCs = experiment: In vitro calcification (mineralization) of VSMC cultures; type: cell-based, mouse; conditions: Enpp1−/− VSMC culture
Procedure: Vascular SMCs were isolated from explants using a collagenase digestion method and the smooth muscle phenotype was confirmed by RT-PCR analysis for smooth muscle α-actin. One mouse aorta provided on average, 5×10^5 cells. These cells were cultured (in triplicate) at a density of 3×10^4 cells/cm^2 using α-MEM supplemented with β-glycerophosphate (10 mM) and 50 μg/ml ascorbic acid for 3 weeks. To quantify calcium deposited in these cultures, either the o-cresolphthalein complexone method^(31) or the standard Alizarin Red method was used.

[2] = pH 7.5, 1 M Tris-HCl buffer, pNPP substrate, read-out: Ki (μM) @ pH 7.5
[3] = pH 9.8, 1 M DEA-HCl buffer, pNPP substrate, read-out: Ki (μM) @ pH 9.8

Cn1cnnc1SC(C(=O)c1ccccc1)c1ccccc1 (stereo not drawn)
Ki (human TNAP; [2]): 6.4 ± 1.6 µM | Ki (human TNAP; [3]): 5.6 ± 1.6 µM | PPi hydrolysis [1]: 0.269 ± 0.032 nmol/g/min | % Inhibition [1]: 15.9%

O=C(CSc1nnc[nH]1)NCCOc1ccccc1
Ki (human TNAP; [2]): 33 ± 5.8 µM | Ki (human TNAP; [3]): 5.6 ± 0.7 µM | PPi hydrolysis [1]: 0.249 ± 0.046 nmol/g/min | % Inhibition [1]: 22.2%

Cn1ccnc1Sc1nc(Nc2ccccc2)nc(Nc2ccccc2)n1 [Compound E1]
Ki (human TNAP; Tables D and E, pH not given, read-out: Ki): 5.6 µM

Cn1ccnc1Sc1nc(Nc2ccccc2)nc(Nc2ccccc2)n1 [compound 5804079]
potency at pH 7.5 compared with pH 9.8 (human TNAP): more potent at pH 7.5 than at pH 9.8 | potency relative to levamisole (human TNAP; Ki at physiological pH): about 10 fold | effect of competitive inhibitor Pi on potency (human TNAP; pH 7.4, 0.1 mM pNPP, Na2HPO4 0-10 mM): does not affect the potency; also recorded: not affected by the presence of the competitive inhibitor Pi | effect of PPi on degree of inhibition (human TNAP; pH 7.4, 0.1 mM pNPP, pyrophosphate 0-40 mM): does not affect the degree of inhibition; also recorded: not affected by high concentrations of PPi | Ki (human TNAP; [2]): 2.8 ± 0.4 µM | Ki (human TNAP; [3]): 6.5 ± 1.4 µM | PPi hydrolysis [1]: 0.192 ± 0.041 nmol/g/min | % Inhibition [1]: 39.9% | suppression of endogenous pyrophosphatase activity (ranking) ([1]; rat whole aortas ex vivo): most effective | inhibition of mineralization (Enpp1−/− VSMCs): most inhibitory

c1ccc([C@H]2CN3CCSC3=N2)cc1 [levamisole, (6S)-6-phenyl-2,3,5,6-tetrahydro-imidazo[2,1-b][1,3]thiazole, reference compound]
PPi hydrolysis [1]: 0.252 ± 0.047 nmol/g/min | % Inhibition [1]: 21.2%
